Experimental findings from patent US20020192223A1 (priority 1989, published 2002) are described below.

The subject of data set [1] is RCA colon carcinoma xenografts. As to the kind of experiment: BR96-DOX against established subcutaneous xenografts. The format is in vivo, athymic mice. The method, then: (§1) Athymic rats were transplanted subcutaneously with human lung adenocarcinoma L2987, colon carcinoma RCA, or breast carcinoma MCF7 and permitted to grow. Therapy (3 treatments 4 days apart) started 14 to 28 days after tumor transplantation when tumors were well established, i.e., when the tumors were 50 to 100 mm^3 in size.
(§2) Mice and rats were administered with BR96-DOX by three injections, each injection being about four days apart. Mice which were injected intraperitoneally (IP) were given 20 mg/kg of BR96-DOX. Mice which were injected intravenously were given 10 mg/kg of BR96. Intravenous (IV) injection involved less volume of BR96 because of the constraints of injection volume, namely, only 10 mg/kg was administrable by IV.
(§3) Controls One set of controls included untreated mice and mice that received (1) DOX (at doses optimized to produce maximal antitumor activity in each model); (2) unconjugated BR96; (3) mixtures of BR96 and DOX; and (4) DOX conjugated to either normal human IgG or the control MAb SN7. Doses of DOX and MAb are presented as mg/kg/[…].
(§4) Treatment with BR96-DOX consistently cured most mice bearing L2987 (FIG. 46A) or RCA (FIG. 46B) tumors. […] Complete tumor regression (CR) refers to a tumor that for a period of time is not palpable. Partial tumor regression (PR) means a decrease in tumor volume to ≦50% of the initial tumor volume.

Data set [2] deals with L2987 human lung tumor xenografts. As to the kind of experiment: Test V in vivo activity of relaxed BR64 and L6 conjugates. To be noted: optimized doses of adriamycin. More on the design: species or system BALB/c nu/nu mice. The method, then: The in vivo antitumor activity of immunoconjugates of adriamycin and relaxed BR64 or relaxed L6 was evaluated.
Congenitally athymic female mice of BALB/c background (BALB/C nu/nu; Harlan Sprague-Dawley, Indianapolis, Ind.) were used. Mice were housed in Thoren caging units on sterile bedding with controlled temperature and humidity. Animals received sterile food and water ad libitum.
The L2987 human tumor line was established as tumor xenograft models in athymic mice. The tumor line was maintained by serial passage in vivo. Tumors were measured in 2 perpendicular directions at weekly or biweekly intervals using calipers. Tumor volume was calculated according to the equation: [formula]
In general, there were 8-10 mice per control or treatment group. Data are presented as median tumor size for control or treated groups. Antitumor activity is expressed in terms of gross log cell kill (“LCK”) where: [formula] […]
For animals bearing the L2987 human lung tumor, therapy was typically initiated when the median tumor size was 75 mm^3(12-14 days after tumor implant). The average TVDT was 4.8±0.9 days and antitumor activity was assessed at a tumor size of 500 mm^3. […]
Materials under investigation were administered by the ip or iv route. […] Compounds were administered on a mg/kg basis calculated for each animal, and doses are presented as mg/kg of equivalent adriamycin/injection. […]

The subject of data set [3] is RCA human colon tumor xenografts. As to the kind of experiment: Test VI in vivo activity of ChiBR96-ADM conjugates. More on the design: species or system athymic mice. The text has this: (§5) In general, there were 8-10 mice per control or treatment group. Data are presented as median tumor size for control or treated groups. Antitumor activity is expressed in terms of gross log cell kill (“LCK”) where: [formula]
(§6) T−C is defined as the median time (days) for treated tumors to reach target size minus the median time for control tumors to reach target size and TVDT is the time (days) for control tumors to double in volume (250-500 mm^3). Partial tumor regression (“PR”) refers to a decrease in tumor volume to ≦50% of the initial tumor volume; complete tumor regression (“CR”) refers to a tumor which for a period of time is not palpable; and cure is defined as an established tumor which is not palpable for a period of time ≧10 TVDTs.
(§7) Materials under investigation were administered by the ip or iv route. Adriamycin was diluted in normal saline; antibody and antibody/adriamycin conjugates were diluted in phosphate buffered saline. Compounds were administered on a mg/kg basis calculated for each animal, and doses are presented as mg/kg of equivalent adriamycin/injection. Immunoconjugates were administered on a q4dx3 schedule.
(§8) The antitumor activity of ChiBR96-ADM conjugates was evaluated against established human lung (“L2987”), breast (“MCF7,” obtainable from the ATCC under the accession number ATCC HTB 22; see also I. Hellström, et al., Cancer Research 50:2183 (1990)), and colon (“RCA” from M. Brattain, Baylor University; see also I. Hellström, et al., Cancer Research 50:2183 (1990)) tumors.
(§9) Animals were maintained and tumor xenograft models were established for the MCF7 and RCA and the L2987 human tumor lines as described for the L2987 in Test V. Materials were administered as described in Test V.
For animals bearing the RCA colon tumor, therapy was initiated 15 days after tumor implant when the median tumor size was 75 mm^3. The average TVDT for RCA tumor xenografts was 9.5±1.5 days and antitumor activity was assessed at 400 mm^3.

The test system of data set [4] is L2987 human lung carcinoma, subcutaneous. As to the kind of experiment: BR96-DOX against human lung tumors implanted in rats. The format is in vivo, athymic Rowett rats.
Text: Athymic mice and athymic Rowett rats (Harlan Sprague Dawley) were used in this study.
as §1
Another set included rats using the protocol used in control mice.

The nature of data set [5]: Maximum tolerated dose, 3 injections 4 days apart. In kind it is in vivo, mice. As to conditions: equivalent DOX dose. How it is done:
The maximum tolerated dose (MTD) (equivalent DOX dose) of the BR96-DOX conjugate (administered as 3 injections 4 days apart) was 20 mg/kg administered intraperitoneally (IP). When administered intravenously (IV) the MTD was ≧10 mg/kg. This was the maximum dose that could be administered IV because of the constraints of injection volume.
The MTD of unconjugated DOX (8 mg/kg IV and 4 mg/kg IP) was lower than that of the BR96-DOX conjugate. Unconjugated DOX administered IV at the MTD produced a delay in tumor growth but no tumor regressions and if the dose was reduced to 50% of the MTD, DOX had no effect.

The test system of data set [6] is L2987 human lung tumor xenografts. Description: Test VI in vivo activity of ChiBR96-ADM conjugates. Further details: species or system athymic mice.
Text: as §5, §6, §7, §8, §9
For animals bearing the L2987 human lung tumor, therapy typically was initiated when the median tumor size was 75 mm^3 (12-14 days after tumor implant). The average TVDT was 4.8±0.9 days and antitumor activity was assessed at a tumor size of 500 mm^3. In several experiments therapy was initiated when L2987 tumors were 225 mm^3 in size.

In data set [7] the test system is L2987 spheroids inoculated IV. As to the kind of experiment: BR96-DOX against large disseminated tumors. In kind it is in vivo, athymic mice. To be noted: DOX 8 mg/kg. The text has this: L2987 lung carcinoma cells were selected in vitro for the ability to grow as multicellular spheroids. When injected IV into athymic mice or rats, tumors developed at various sites, including lymph nodes, lung, spleen, liver, brain, subcutaneously, and ascites was formed in some animals.
Mice were inoculated IV with L2987 spheroids.
The burden of disseminated disease in these animals was so far advanced that 50% of control animals died during the first 6 days of the experiment. […] Surviving mice were sacrificed 200 days after cell inoculation and sections of lung, lymph nodes, spleen, colon, jejunum, kidney, liver, brain, and heart were examined by histology.

Data set [8] concerns L2987 lung tumor xenografts. As to the kind of experiment: BR96-DOX against established subcutaneous xenografts. The format is in vivo, athymic mice. How it is done:
Athymic rats were transplanted subcutaneously with human lung adenocarcinoma L2987, colon carcinoma RCA, or breast carcinoma MCF7 and permitted to grow. […]
as §2, §3, §4

Data set [9] relates to MCF7 human breast tumor xenografts. Description: Test VI in vivo activity of ChiBR96-ADM conjugates. More on the design: species or system athymic mice. As to conditions: ADM 6 mg/kg, iv.
Text: as §5, §6, §7, §8, §9
The MCF7 tumor is an estrogen-dependent human breast tumor line. Athymic mice were implanted with 0.65 mg (65 day release rate) estradiol pellets (Innovative Research of America, Toledo, Ohio) on the day of tumor implant. Therapy was initiated when the median tumor size was 100 mm^3 (typically 13 days after tumor implant).

Data set [10] relates to cells obtained from tumors that grew back after BR96-DOX induced regression. As to the kind of experiment: In vitro 3[H]-thymidine incorporation IC50. In kind it is cell-based. To be noted: treatment (regrown tumor cells).
The next data set has as its system parental cell line. Description: In vitro 3[H]-thymidine incorporation IC50. The format is cell-based. A general note: Uptake of a labelled nucleoside into DNA is a usual measure of proliferation.
Data set [11] in a line: Solubility of the hydrazone during conjugation. In kind it is physicochemical. As to conditions: PBS. How it is done:
3. The solution is transferred back to a round bottom flask equipped with a magnetic stirrer and kept in ice. The solution continuously is blanketed by nitrogen. The volume of the solution is noted. […] A solution of maleimidocaproyl hydrazone of adriamycin in distilled water (5 mg/mL, 6.3×10^−3 M) is prepared (notes 7, 8). The amount (in mL) of this solution needed for the conjugation is determined by the formula: [formula]
10. Brief applications of a sonicator will facilitate dissolution in distilled water. The resulting solution is stable.

Molecules are shown by their SMILES.

One may read the IC50 as the midpoint of a concentration-inhibition curve. `COc1cccc2c1C(=O)c1c(O)c3c(c(O)c1C2=O)C[C@@](O)(C(=O)CO)C[C@@H]3O[C@H]1C[C@H](N)[C@H](O)[C@H](C)O1` [Adriamycin, adriamycin]: the “activity against established RCA tumors (growth delay or regressions)” value in data set [1] (DOX alone) is reported as “not active”. The “tumor regressions: Complete” value in data set [1] (RCA, q4dx3, DOX 8.0, no MAb) worked out at 0%; in [1] (mouse, in vivo), 0%; in data set [8] (L2987, q4dx3, DOX 8.0, no MAb) it was 0%. For the same compound, the “tumor regressions: Cures” value in data set [1] (RCA, q4dx3, DOX 8.0, no MAb) came out at 0%; in data set [1] (mouse, in vivo), 0%; in data set [8] (L2987, q4dx3, DOX 8.0, no MAb), 0%. The “tumor regressions: Partial” value in [1] (RCA, q4dx3, DOX 8.0, no MAb) stood at 0%; in data set [1] (mouse, in vivo), 0%; in data set [8] (L2987, q4dx3, DOX 8.0, no MAb) it was 0.8 ± 0.8%. Besides, the LCK is listed as 1.1 LCK in [2]; 0 in [3] (10/405 mg/kg, ip); 0.4 in [3] (ADM 8/0 mg/kg, iv); 1.5 in [6] (ADM 8 mg/kg, iv, q4dx3 (Table 16)); 1-1.8 in data set [6] (ADM 8 mg/kg, no antibody, iv, q4dx3 (55 mice)); 1.0 LCK in data set [6] (FIG. 57, optimized adriamycin (8 mg/kg)). In addition, the LCK in data set [6] (FIG. 58, optimized adriamycin) is given as 1.6 LCK; in [9], 1.4. In addition, the CR came to 0% in data set [3] (10/405 mg/kg, ip); 0% in data set [3] (ADM 8/0 mg/kg, iv); 0% in [6] (ADM 8 mg/kg, iv (Table 16)); 0% in [6] (ADM 8 mg/kg, no antibody, iv); 0% in [9]. The Cure in data set [3] (10/405 mg/kg, ip) was found to be 0%; in data set [3] (ADM 8/0 mg/kg, iv) it was 0%; in [6] (ADM 8 mg/kg, iv (Table 16)), 0%; in [6] (ADM 8 mg/kg, no antibody, iv), 0%; in data set [9], 0%. Besides, the PR in data set [3] (10/405 mg/kg, ip) is given as 0%; in [3] (ADM 8/0 mg/kg, iv), 0%; in data set [6] (ADM 8 mg/kg, iv (Table 16)), 0%; in data set [6] (ADM 8 mg/kg, no antibody, iv) it was 3.6%; in data set [9], 0%. The “MTD of free DOX” value in [4] (3 injections 4 days apart) came out at 4 mg/kg. This compound also yielded a cures in data set [4] (rats, 4 mg/kg, 3 injections 4 days apart (MTD of free DOX)) of 25%. The “maximum tolerated dose (MTD)” value in data set [5] (intraperitoneally (IP)) came out at 4 mg/kg; in data set [5] (intravenously (IV)), 8 mg/kg. Moreover, the “day by which 100% of the mice were dead” value in [7] came to 140 days. In addition, in data set [8] (L2987 tumors 250 to 800 mm^3, optimal dose of DOX), the antitumor activity result was “antitumor activity was not observed”. For the same compound, the 50% inhibitory concentration (IC50) turned out to be 400 ± 100 nM in data set [10] and 300 ± 200 nM in the data set on parental cell line.

Consider `COc1cccc2c1C(=O)c1c(O)c3c(c(O)c1C2=O)C[C@@](O)(/C(CO)=N/NC(=O)CCCCCN1C(=O)C=CC1=O)C[C@@H]3O[C@H]1C[C@H](N)[C@H](O)[C@H](C)O1` [hydrazone, Maleimidocaproylhydrazone of Adriamycin], for which the solubility result in data set [11] is listed as “not very soluble in PBS”.
